Assay results reported in US12281333B2, “Renal tube assay device and methods of manufacture and use” (The University of Kansas, priority 2020, dated 2025).

Legend:
[1] = test system: tubules of M1 cells; test: Contractility of renal tubule model lined by M1 cells (kymogram analysis of time-lapse images); assay type: cell-based, mouse; conditions: for relative contraction (ratio of measured contraction to tubule diameter): percent of untreated tubule diameter, FIG. 3C
Description: (§1) Time-lapse recordings of kidney epithelial cells in hydrogel tunnels were performed on a Zeiss Axio Observer Z1 ® inverted microscope with a 10× Plan Neofluar® objective. The microscope was equipped with a Marzhauser SCAN-IM powered stage and a Zeiss AxioCam® MRm CCD camera. Cell cultures established in flow chambers within cell culture dishes (Greiner) were continuously kept in a stage-incubator (Cell Movie) providing 37° C. and humidified 5% CO2 atmosphere. Stage positioning, focusing and image collection were all controlled by Zeiss Axiovision® 4.8 software and a custom-made experiment manager software module. Phase contrast images were collected consecutively in every 10 minutes from several microscopic fields for up to 4 days. Alternatively, for real-time video microscopy the images were captured at a rate of 20 frames per second.
Contraction of renal tubule models were analyzed on the basis of image series captured by phase-contrast time-lapse video microscopy. Using NIH ImageJ software's Reslice function image series were resliced along a cross sectional line across the tubule resulting in a kymogram.
For inhibition of actomyosin contractility, Y27632, a cell-permeable Rho kinase inhibitor, (Merck Millipore (9) was applied. The inhibitor was dissolved in water and kept in 10 mM stock solutions and used at 50 μM final concentration. For control treatments, an identical volume of water was applied.
(§2) The inhibitor was applied at 50 μM final concentration in the flow chamber without circulation, resulting in dilation of the tunnel within 30 minutes. […] Both the dilation and contraction responses were quantitatively analyzed by constructing kymograms from the phase-contrast time-lapse image series as shown in FIG. 3A. In a collagen I gel, the diameter of 250 μm wide M1- or MDCK-lined tunnels contracted by 20 or 15 μm, respectively as shown in FIG. 3B. The relative contraction (as defined by the ratio of the measured contraction to tubule diameter) is larger for tubules with smaller diameters: while the 250 μm tubule contracts almost […] of its diameter, a 600 μm large tubule contracts only about 5% as shown in FIG. 3C.
FIGS. 3A-3C show the contractility of model renal tubules. FIG. 3A includes a representative kymogram along a perpendicular cross section of a tubule of M1 cells in collagen I gel matrix. Time progresses from top to bottom, a 10h long interval is indicated by the arrow. The duration of treatment with 50 μM Y27632 Rho kinase inhibitor is indicated with the red line (scale bar: 50 μm). FIGS. 3B-3C include graphs illustrating quantitative analysis of tubule contractility. […] Error bars represent SEM.

[2] = test system: tubules of MDCK cells; test: Contractility of renal tubule model lined by MDCK cells (kymogram analysis of time-lapse images); assay type: cell-based, canine; conditions: 250 μm wide MDCK-lined tunnels in collagen I gel; 50 μM inhibitor then washout; FIG. 3B, n=2
Description: as §1, with “Phase contrast images were collected consecutively in every 10 minutes from several microscopic fields for up to 4 days. Alternatively, for real-time video microscopy the images were captured at a rate of 20 frames per second.” left out
Contraction of renal tubule models were analyzed on the basis of image series captured by phase-contrast time-lapse video microscopy. […]
as §2, with “In a collagen I gel, the diameter of 250 μm wide M1- or MDCK-lined tunnels contracted by 20 or 15 μm, respectively as shown in FIG. 3B.” left out, “3C. […]” for “3C.”

C[C@@H](N)[C@H]1CC[C@H](C(=O)Nc2ccncc2)CC1 [Y27632]
time to dilation of the tunnel ([1]; 50 μM final concentration in the flow chamber without circulation, cell line not given, FIG. 3A kymogram is M1 cells in collagen I gel): ≤ 30 min | relative contraction (ratio of measured contraction to tubule diameter) ([1]; 250 μm tubule of M1 cells): ~13% | contraction of tunnel diameter ([1]; 250 μm wide M1-lined tunnels in collagen I gel, 50 μM inhibitor then washout, FIG. 3B, n=2): 20 μm | relative contraction (ratio of measured contraction to tubule diameter) ([1]; 600 μm tubule of M1 cells): about 5% | effect of subsequent washout of the inhibitor on the tunnel ([1]; after 50 μM treatment, washout): gradual contraction of the tunnel to approximately its initial state | contraction of tunnel diameter [2]: 15 μm
